We go through 1 compound from publication PMC3274592 (Archives of Biochemistry and Biophysics, 2011).

SMILES strings stand for the structures.

Assay [1] addresses CYP158A1 (Streptomyces coelicolor, UniProt Q9KZF5, K90I). Description: UV-vis difference spectral titration. Type of assay: binding.
Assay [2] deals with CYP158A1 (Streptomyces coelicolor, UniProt Q9KZF5). Kind of assay: UV-vis difference spectral titration. In kind it is binding.

Usually Kd stands for a measure of binding affinity in units of concentration. Higher therefore signals a looser complex.

Sequence of CYP158A1 (Streptomyces coelicolor, UniProt Q9KZF5) (Q9KZF5 whole entry): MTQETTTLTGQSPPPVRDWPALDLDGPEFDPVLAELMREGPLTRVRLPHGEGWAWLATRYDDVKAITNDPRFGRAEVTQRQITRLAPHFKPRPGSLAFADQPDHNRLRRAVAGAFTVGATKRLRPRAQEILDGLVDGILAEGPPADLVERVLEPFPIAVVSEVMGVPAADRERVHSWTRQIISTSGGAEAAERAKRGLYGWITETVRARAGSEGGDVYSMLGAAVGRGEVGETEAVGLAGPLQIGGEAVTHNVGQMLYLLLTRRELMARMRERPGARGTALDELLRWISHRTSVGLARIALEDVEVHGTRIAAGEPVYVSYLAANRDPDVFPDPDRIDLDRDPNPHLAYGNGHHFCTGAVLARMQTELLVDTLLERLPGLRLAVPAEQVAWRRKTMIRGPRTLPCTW
Sequence of CYP158A1 (Streptomyces coelicolor, UniProt Q9KZF5, K90I) (Q9KZF5 whole entry K90I): as the sequence (Q9KZF5 whole entry) above, with K90I counted along it

For `O=C1C(O)=CC(=O)c2c(O)cc(O)cc21` [flaviolin], the Kd was found to be 16.9 µM in assay [1] and 10.5 µM in assay [2].
